Reference: patent US8871753B2, “Macrocyclic compounds and their use as kinase inhibitors” (Incyte Corporation, priority 2008, dated 2014)
Structures can show the parent of a compound that is named as a salt. Where two headings read alike, the source gives them in different places.

Tests used:
Assay type in all cases: biochemical
[1] = molecular target: TYK2 (Homo sapiens, UniProt P29597); assay: TYK2 kinase inhibition (Table A1)
[2] = molecular target: T1, human JAK3 (a.a. 781-1124) (Homo sapiens, UniProt P52333); assay: In vitro JAK kinase assay (HTRF, phosphorylation of a biotinylated peptide), JAK3
T1 construct: JAK3 (a.a. 781-1124); His tag (N); made in house; host or cells: insect cells (baculovirus)
How it was run: (§1)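 Kinase reactions ran at room temperature for 1 h with ATP matched per isoform (JAK1 90 μM, JAK2 30 μM, JAK3 3 μM). After an EDTA stop, the phosphorylated biotin-peptide was read by HTRF using Eu-Py20 and SA-APC after 40 min binding.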

[3] = molecular target: T2, human JAK2 (a.a. 828-1132) (Homo sapiens, UniProt O60674); assay: In vitro JAK kinase assay (HTRF, phosphorylation of a biotinylated peptide), JAK2
T2 construct: JAK2 (a.a. 828-1132); His tag (N); made in house; host or cells: insect cells (baculovirus)
How it was run: as §1

[4] = molecular target: T3, human JAK1 (a.a. 837-1142) (Homo sapiens, UniProt P23458); assay: In vitro JAK kinase assay (HTRF, phosphorylation of a biotinylated peptide), JAK1; settings: read-out: JAK1 IC50
T3 construct: human JAK1 (a.a. 837-1142); His tag (N); made in house; host or cells: insect cells (baculovirus)
How it was run: as §1

[5] = molecular target: T4, Recombinant Human Anaplastic Lymphoma Kinase (Homo sapiens, UniProt Q9UM73); assay: ALK HTRF kinase assay
T4 construct: purchased Invitrogen, Carlsbad, Calif
How it was run: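 Recombinant human ALK phosphorylated a biotinylated synthetic peptide. Phosphotyrosine was detected by TR-FRET between a Eu-labelled anti-phosphotyrosine antibody and streptavidin-allophycocyanin. IC50 values came from fitting signal against inhibitor concentration to a four-parameter logistic equation with variable Hill slope.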

[6] = compound at a concentration of 500 nM or 1 mM (not specified), cells shown as percentage

T4 sequence (Q9UM73 19-1620): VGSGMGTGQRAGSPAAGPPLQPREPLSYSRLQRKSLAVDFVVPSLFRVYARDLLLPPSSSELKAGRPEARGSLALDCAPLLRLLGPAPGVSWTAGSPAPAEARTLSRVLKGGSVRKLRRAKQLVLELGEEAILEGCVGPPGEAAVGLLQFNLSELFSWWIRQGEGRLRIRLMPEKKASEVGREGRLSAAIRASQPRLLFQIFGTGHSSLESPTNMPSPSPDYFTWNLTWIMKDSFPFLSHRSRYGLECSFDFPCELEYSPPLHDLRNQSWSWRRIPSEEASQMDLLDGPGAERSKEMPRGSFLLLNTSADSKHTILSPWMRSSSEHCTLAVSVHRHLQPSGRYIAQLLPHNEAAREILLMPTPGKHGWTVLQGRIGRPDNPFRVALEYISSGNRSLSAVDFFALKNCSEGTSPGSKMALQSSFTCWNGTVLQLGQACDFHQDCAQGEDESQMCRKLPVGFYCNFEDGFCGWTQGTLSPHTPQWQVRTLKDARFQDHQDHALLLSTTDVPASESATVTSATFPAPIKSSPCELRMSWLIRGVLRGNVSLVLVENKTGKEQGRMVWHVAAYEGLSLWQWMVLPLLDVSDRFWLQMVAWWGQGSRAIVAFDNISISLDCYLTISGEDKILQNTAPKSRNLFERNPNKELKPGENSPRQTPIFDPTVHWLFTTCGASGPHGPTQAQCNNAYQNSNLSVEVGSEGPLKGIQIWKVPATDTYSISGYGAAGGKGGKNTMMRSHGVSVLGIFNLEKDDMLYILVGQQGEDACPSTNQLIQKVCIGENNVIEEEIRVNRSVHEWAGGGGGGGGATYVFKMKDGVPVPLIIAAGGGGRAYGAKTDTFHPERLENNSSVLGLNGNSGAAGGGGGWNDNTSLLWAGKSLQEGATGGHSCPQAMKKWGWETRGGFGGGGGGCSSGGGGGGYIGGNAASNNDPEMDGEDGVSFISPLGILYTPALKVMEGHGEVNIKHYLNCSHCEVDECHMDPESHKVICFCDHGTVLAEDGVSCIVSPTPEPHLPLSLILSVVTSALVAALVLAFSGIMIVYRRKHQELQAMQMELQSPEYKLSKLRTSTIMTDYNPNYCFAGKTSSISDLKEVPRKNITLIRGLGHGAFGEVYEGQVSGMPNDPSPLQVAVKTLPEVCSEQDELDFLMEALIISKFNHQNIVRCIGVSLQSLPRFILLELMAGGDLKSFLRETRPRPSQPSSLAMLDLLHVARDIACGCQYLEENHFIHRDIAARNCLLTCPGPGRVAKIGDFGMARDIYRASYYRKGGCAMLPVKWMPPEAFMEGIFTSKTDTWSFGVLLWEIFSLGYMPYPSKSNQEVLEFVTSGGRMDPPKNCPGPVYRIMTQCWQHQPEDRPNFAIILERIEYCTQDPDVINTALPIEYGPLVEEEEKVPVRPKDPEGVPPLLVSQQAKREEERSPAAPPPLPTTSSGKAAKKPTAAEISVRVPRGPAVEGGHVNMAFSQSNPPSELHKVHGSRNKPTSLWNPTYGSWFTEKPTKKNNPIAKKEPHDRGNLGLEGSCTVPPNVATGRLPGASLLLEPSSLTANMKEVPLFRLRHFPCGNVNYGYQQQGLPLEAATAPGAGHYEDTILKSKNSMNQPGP
T1 sequence (P52333 781-1124): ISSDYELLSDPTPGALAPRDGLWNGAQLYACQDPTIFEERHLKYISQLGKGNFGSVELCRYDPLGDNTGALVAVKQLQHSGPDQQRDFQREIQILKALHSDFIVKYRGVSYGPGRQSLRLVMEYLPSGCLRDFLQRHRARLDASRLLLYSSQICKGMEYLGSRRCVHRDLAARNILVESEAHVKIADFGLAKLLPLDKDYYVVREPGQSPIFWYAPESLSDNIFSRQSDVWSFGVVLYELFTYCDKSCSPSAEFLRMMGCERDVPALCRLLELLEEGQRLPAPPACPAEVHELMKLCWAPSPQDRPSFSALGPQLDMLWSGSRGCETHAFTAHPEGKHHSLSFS
T3 sequence (P23458 849-1154): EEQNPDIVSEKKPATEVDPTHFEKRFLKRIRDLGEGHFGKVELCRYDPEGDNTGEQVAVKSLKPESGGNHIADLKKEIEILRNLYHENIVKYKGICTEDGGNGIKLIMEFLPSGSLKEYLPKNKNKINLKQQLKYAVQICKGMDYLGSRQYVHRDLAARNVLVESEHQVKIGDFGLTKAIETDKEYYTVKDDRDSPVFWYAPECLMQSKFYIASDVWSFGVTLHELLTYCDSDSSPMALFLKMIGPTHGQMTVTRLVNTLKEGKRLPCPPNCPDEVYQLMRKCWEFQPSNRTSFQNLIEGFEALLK
T2 sequence (O60674 828-1132): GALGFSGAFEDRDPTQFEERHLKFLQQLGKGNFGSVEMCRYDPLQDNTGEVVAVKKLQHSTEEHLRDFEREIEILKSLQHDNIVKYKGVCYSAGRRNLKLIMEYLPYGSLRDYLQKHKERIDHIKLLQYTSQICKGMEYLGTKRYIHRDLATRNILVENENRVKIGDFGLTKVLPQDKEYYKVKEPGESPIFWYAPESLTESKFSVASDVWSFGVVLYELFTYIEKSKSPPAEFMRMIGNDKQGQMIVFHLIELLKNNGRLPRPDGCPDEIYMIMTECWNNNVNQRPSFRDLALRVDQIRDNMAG
Chain of TYK2 (P29597 whole entry): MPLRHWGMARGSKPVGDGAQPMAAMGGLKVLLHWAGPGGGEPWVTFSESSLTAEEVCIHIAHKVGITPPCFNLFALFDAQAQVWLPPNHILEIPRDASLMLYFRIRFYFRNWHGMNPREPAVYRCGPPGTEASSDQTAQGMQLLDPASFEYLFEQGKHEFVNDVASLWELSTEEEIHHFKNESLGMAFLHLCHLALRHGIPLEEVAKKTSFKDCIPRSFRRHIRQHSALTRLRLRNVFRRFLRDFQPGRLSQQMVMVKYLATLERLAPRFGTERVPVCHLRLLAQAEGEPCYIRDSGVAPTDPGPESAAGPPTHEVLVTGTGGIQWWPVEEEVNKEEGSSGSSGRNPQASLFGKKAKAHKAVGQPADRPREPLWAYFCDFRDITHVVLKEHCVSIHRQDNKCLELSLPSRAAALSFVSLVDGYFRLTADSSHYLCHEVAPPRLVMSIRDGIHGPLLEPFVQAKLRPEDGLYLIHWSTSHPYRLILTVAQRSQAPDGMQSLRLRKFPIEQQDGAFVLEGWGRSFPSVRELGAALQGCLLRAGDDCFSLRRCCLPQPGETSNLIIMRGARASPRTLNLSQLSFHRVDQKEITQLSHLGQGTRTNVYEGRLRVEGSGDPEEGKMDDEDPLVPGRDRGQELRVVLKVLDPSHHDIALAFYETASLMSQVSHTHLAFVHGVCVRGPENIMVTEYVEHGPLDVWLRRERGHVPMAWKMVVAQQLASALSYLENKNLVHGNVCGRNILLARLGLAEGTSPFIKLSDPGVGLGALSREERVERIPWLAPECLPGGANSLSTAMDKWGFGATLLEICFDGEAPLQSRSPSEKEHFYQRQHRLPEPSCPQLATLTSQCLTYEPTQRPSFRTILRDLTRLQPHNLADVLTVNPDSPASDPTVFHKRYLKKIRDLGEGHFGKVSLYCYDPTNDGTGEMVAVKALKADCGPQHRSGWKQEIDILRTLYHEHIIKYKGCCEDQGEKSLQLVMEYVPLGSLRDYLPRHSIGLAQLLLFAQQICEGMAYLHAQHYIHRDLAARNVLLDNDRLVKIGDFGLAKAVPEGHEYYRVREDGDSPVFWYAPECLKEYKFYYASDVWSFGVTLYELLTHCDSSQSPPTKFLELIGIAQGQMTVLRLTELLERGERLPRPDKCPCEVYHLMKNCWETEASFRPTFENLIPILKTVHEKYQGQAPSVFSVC

**Q.** Which IC50 ([1]; Table B1) does the source give for `O=C(Nc1ccc2cc1CCc1cncc(c1)Nc1ncc(Cl)c(n1)N2)N1CCN(c2cnccn2)CC1` [Example B294, N-[6-Chloro-2,4,8,18,22-pentaazatetracyclo[14.3.1.1(3,7).1(9,13)]docosa-1(20),3(22),4,6,9(21),10,12,16,18-nonaen-12-yl]-4-pyrazin-2-ylpiperazine-1-carboxamide tetrakis(trifluoroacetate)] here?
**A.** The IC50 was 85 nM.

**Q.** What about the IC50 ([2]; Table B1) of the same molecule?
**A.** Its IC50 is greater than 200 nM.

**Q.** What about the IC50 ([3]; Table B1) of the same molecule?
**A.** The IC50 was 150 nM.

**Q.** What about the IC50 ([4]; Table B1) of the same molecule?
**A.** The IC50 was 19 nM.

**Q.** What about the “ALK % of inhibition at a concentration of 500 nM or 1 mM” value (shortened to “ALK % of inhibition”) [5, 6] of the same molecule?
**A.** The value was 54%.

**Q.** For `COc1ccc(N2CCN(C(=O)Nc3ccc4cc3CCc3cncc(c3)Nc3ncc(Cl)c(n3)N4)CC2)cc1` [Example B299, N-[6-Chloro-2,4,8,18,22-pentaazatetracyclo[14.3.1.1(3,7).1(9,13)]docosa-1(20),3(22),4,6,9(21),10,12,16,18-nonaen-12-yl]-4-(4-methoxyphenyl)piperazine-1-carboxamide tris(trifluoroacetate)], which IC50 ([1]; Table B1) is on record?
**A.** Its IC50 is 82 nM.

**Q.** And the IC50 ([2]; Table B1)?
**A.** The IC50 was greater than 400 nM.

**Q.** And the IC50 ([3]; Table B1)?
**A.** The IC50 was 180 nM.

**Q.** What about the IC50 ([4]; Table B1) of the same molecule?
**A.** The IC50 was 30 nM.

**Q.** What about the “ALK % of inhibition” value [5, 6] of the same molecule?
**A.** Its value is 74%.

**Q.** Which IC50 ([1]; Table B1) does the source give for `O=C(Nc1ccc2cc1CCc1cccc(c1)Nc1ncc(Cl)c(n1)N2)NC1CCCNC1` (stereo not drawn) [Example B238, N-[6-Chloro-2,4,8,22-tetraazatetracyclo[14.3.1.1(3,7).1(9,13)]docosa-1(20),3(22),4,6,9(21),10,12,16,18-nonaen-12-yl]-N′-piperidin-3-ylurea bis(trifluoroacetate)] here?
**A.** Its IC50 is 50 nM.

**Q.** And the IC50 ([2]; Table B1)?
**A.** The IC50 was 274 nM.

**Q.** And the IC50 ([3]; Table B1)?
**A.** The IC50 was 17 nM.

**Q.** And the IC50 ([4]; Table B1)?
**A.** Its IC50 is 8.1 nM.

**Q.** And the “ALK % of inhibition” value [5, 6]?
**A.** Its value is 15%.

**Q.** For `O=C1Nc2cccc(c2)Nc2nc(ncc2Cl)Nc2cccc1c2` [Example C2, 6-Chloro-2,4,8,14,22-pentaazatetracyclo[14.3.1.1(3,7).1(9,13)]docosa-1(20),3(22),4,6,9(21),10,12,16,18-nonaen-15-one hydrochloride], which IC50 [1] is on record?
**A.** Its IC50 is greater than 1000 nM.

**Q.** And the IC50 [2]?
**A.** The IC50 was greater than 1000 nM.

**Q.** What about the IC50 [3] of the same molecule?
**A.** Its IC50 is greater than 1000 nM.

**Q.** What about the IC50 [4] of the same molecule?
**A.** Its IC50 is greater than 1000 nM.

**Q.** What about the IC50 [5] of the same molecule?
**A.** Its IC50 is greater than 1000 nM.

**Q.** For `Cn1cncc1C(=O)N1CCC(CC(=O)Nc2ccc3cc2CCc2cncc(c2)Nc2ncc(Cl)c(n2)N3)CC1` [Example A134, N-[6-Chloro-2,4,8,18,22-pentaazatetracyclo[14.3.1.1(3,7).1(9,13)]docosa-1(20),3(22),4,6,9(21),10,12,16,18-nonaen-12-yl]-2-{1-[(1-methyl-1H-imidazol-5yl)carbonyl]piperidin-4-yl}acetamide bis(trifluoroacetate)], which IC50 [1] is on record?
**A.** The IC50 was 25 nM.

**Q.** What about the IC50 ([2]; method AA1 (3 μM ATP) or AA2 (1000 μM ATP), not stated per value) of the same molecule?
**A.** The IC50 was 226 nM.

**Q.** What about the IC50 ([3]; method AA1 (30 μM ATP) or AA2 (1000 μM ATP), not stated per value) of the same molecule?
**A.** The IC50 was 18 nM.

**Q.** What about the IC50 ([4]; method AA1 (90 μM ATP) or AA2 (1000 μM ATP), not stated per value) of the same molecule?
**A.** The IC50 was 6.2 nM.

**Q.** What about the “ALK % of inhibition” value ([5]; compound at 500 nM or 1 mM, 90 μM ATP) of the same molecule?
**A.** Its value is 30%.

**Q.** With `Cn1ccc(C(=O)N2CC[C@H](NC(=O)Nc3ccc4cc3CCc3cccc(c3)Nc3ncc(Cl)c(n3)N4)C2)n1` [Example B232, N-[6-Chloro-2,4,8,22-tetraazatetracyclo[14.3.1.1(3,7).1(9,13)]docosa-1(20),3(22),4,6,9(21),10,12,16,18-nonaen-12-yl]-N′-{(3S)-1-[(1-methyl-1H-pyrazol-3-yl)carbonyl]pyrrolidin-3-yl}urea bis(trifluoroacetate)] as the molecule, how does the IC50 ([1]; Table B1) read?
**A.** Its IC50 is 26 nM.

**Q.** And the IC50 ([2]; Table B1)?
**A.** The IC50 was 72 nM.

**Q.** What about the IC50 ([3]; Table B1) of the same molecule?
**A.** The IC50 was 11 nM.

**Q.** What about the IC50 ([4]; Table B1) of the same molecule?
**A.** The IC50 was 4 nM.

**Q.** What about the “ALK % of inhibition” value [5, 6] of the same molecule?
**A.** The value was 10%.

**Q.** For `O=C(Nc1nc(C(=O)O)cs1)Nc1ccc2cc1CCc1cccc(c1)Nc1ncc(Cl)c(n1)N2` [Example B250, 2-[({[6-Chloro-2,4,8,22-tetraazatetracyclo[14.3.1.1(3,7).1(9,13)]docosa-1(20),3(22),4,6,9(21),10,12,16,18-nonaen-12-yl]amino}carbonyl)amino]-1,3-thiazole-4-carboxylic acid trifluoroacetate], which IC50 ([1]; Table B1) is on record?
**A.** Its IC50 is 5.5 nM.

**Q.** What about the IC50 ([2]; Table B1) of the same molecule?
**A.** The IC50 was 6.3 nM.

**Q.** What about the IC50 ([3]; Table B1) of the same molecule?
**A.** Its IC50 is 28 nM.

**Q.** And the IC50 ([4]; Table B1)?
**A.** The IC50 was 28 nM.

**Q.** And the “ALK % of inhibition” value [5, 6]?
**A.** The value was 66%.

**Q.** What does the source list for `O=C1Nc2cccc(c2)Nc2ncc(Cl)c(n2)Nc2cccc1c2` [Example C1, 6-Chloro-2,4,8,15,22-pentaazatetracyclo[14.3.1.1(3,7).1(9,13)]docosa-1(20),3(22),4,6,9(21),10,12,16,18-nonaen-14-one hydrochloride]?
**A.** IC50 [1]: > 1000 nM; IC50 [2]: > 1000 nM; IC50 [3]: 900 nM; IC50 [4]: > 1000 nM; IC50 [5]: > 10000 nM

**Q.** For `CC(C)(C)OC(=O)N1CC[C@H](NCc2ccc3cc2CCc2cccc(c2)Nc2ncc(Cl)c(n2)N3)C1` [Example B220, tert-Butyl (3S)-3-({[6-chloro-2,4,8,22-tetraazatetracyclo[14.3.1.1(3,7).1(9,13)]docosa-1(20),3(22),4,6,9(21),10,12,16,18-nonaen-12-yl]methyl}amino)pyrrolidine-1-carboxylate bis(trifluoroacetate)], which IC50 ([1]; Table B1) is on record?
**A.** The IC50 was 28 nM.

**Q.** And the IC50 ([2]; Table B1)?
**A.** The IC50 was 36 nM.

**Q.** And the IC50 ([3]; Table B1)?
**A.** The IC50 was 12 nM.

**Q.** What about the IC50 ([4]; Table B1) of the same molecule?
**A.** Its IC50 is 7.4 nM.

**Q.** What about the “ALK % of inhibition” value [5, 6] of the same molecule?
**A.** Its value is 25%.
